Columns and labels:
[1] = system: P. falciparum late stage (stages IV-V) gametocytes; parameters: method as in Almela et al 2016; settings: P. falciparum late stage gametocyte ATP assay, TCAMS screen; ref Almela et al 2016; read-out: Pf GCT ATP IC50; cited from earlier work
[2] = system: P. falciparum late stage (stages IV-V) gametocytes; assay: P. falciparum late stage gametocyte ATP depletion assay (Pf GC-ATP); settings: 1: YES; 0: NO; >10-fold selectivity over cytotoxicity
[3] = system: HepG2 cells; assay: HepG2 cytotoxicity assay; settings: HepG2 cytotoxicity unified across screens; >25 set to 25.00
Procedure, shortened: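 Here viability after a 48 h compound incubation (37°C, humidified 5% CO2) is measured by fluorescence and expressed as percent inhibition, with doxorubicin at 50 μM and DMSO as the bounding controls.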

SMILES	IC50 [1]	Is compound selective in assay? Pf GC-ATP active? [2]	Unified cytotox [3]
CN1CCN(CC2(Nc3nccc(NCCc4cn(C)c5ccccc45)n3)CCCCC2)CC1 [TCMDC-135122]	700 nM	0 (0: NO)	6.94 µM
COc1cc(NC(=O)c2sc(-c3ccc(Cl)cc3)cc2NC(=O)c2ccncc2)ccc1OCCN1CCCC1 [TCMDC-135398]	150 nM	1 (1: YES)	3.23 µM
CCN(CC)CCCNc1nccc(N2CCc3ncnc(Nc4ccc(OCc5cccc(F)c5)c(Cl)c4)c3C2)n1 [TCMDC-135406]	720 nM	0 (0: NO)	5.58 µM
COc1cc2ccccc2cc1OCCCN1CCN(CC(c2ccc(F)cc2)N2CCN(C(C)C)CC2)CC1.Cl (stereo not drawn) [TCMDC-135496]	1250 nM	0 (0: NO)	3.72 µM
COC(=O)c1sc(-c2ccc(Cl)cc2)cc1N(CCCN1CCC(N2CCCCC2)CC1)S(=O)(=O)c1ccc(C)cc1 [TCMDC-135561]	3360 nM	0 (0: NO)	4.37 µM
CC(C)(C)N1CCC(N(Cc2ccc(-c3ccc(C(F)(F)F)cc3)cc2)C(=O)Cn2c(CCc3cccc(F)c3F)cc(=O)c3cccnc32)CC1.O=C(O)C(O)C(O)C(=O)O [TCMDC-136011]	2390 nM	0 (0: NO)	3.10 µM
CCn1c(-c2nonc2N)nc2c(-c3cccc(NC(=O)Nc4ccccc4OC)c3)ncc(OCCCN)c21.O=C(O)C(F)(F)F [TCMDC-136190]	440 nM	1 (1: YES)	5.90 µM
CCn1c(-c2nonc2N)nc2c(-c3cccc(NC(=O)Nc4cccc(C#N)c4)c3)ncc(OCCCN)c21.O=C(O)C(F)(F)F [TCMDC-136195]	3510 nM	0 (0: NO)	24.70 µM
Cl.NCCCOc1cnc(-c2ccccc2)c2nc(-c3nonc3N)n(CCc3ccccc3)c12 [TCMDC-136216]	1400 nM	0 (0: NO)	5.61 µM
O=C(Nc1ccc(F)c(C(F)(F)F)c1)NC1CCN(CCCCCNC(=O)C2CC2c2ccc(Cl)c(Cl)c2)CC1 (stereo not drawn) [TCMDC-136259]	4350 nM	0 (0: NO)	6.40 µM
C[C@H]1CN(Cc2cccc(-c3cc(CNC(=O)c4cccc(CC5CCN(C)CC5)c4)ccc3F)c2)CCN1C [TCMDC-136349]	850 nM	0 (0: NO)	6.97 µM
COc1cc(Br)c(S(=O)(=O)n2cc(CN3CCC(N)CC3)c3cc(Cl)ccc32)cc1OC.O=C(O)C(F)(F)F [TCMDC-136384]	2420 nM	0 (0: NO)	6.70 µM
CN(C)Cc1ccc(-c2cccc(Nc3nccc(NCC(O)c4ccccc4)n3)c2)cc1 (stereo not drawn) [TCMDC-136467]	900 nM	0 (0: NO)	5.87 µM
Fc1ccc(N(c2nc(-c3cc(F)cc(C(F)(F)F)c3)cs2)C2CCNCC2)cc1.O=C(O)C(F)(F)F [TCMDC-136656]	3280 nM	0 (0: NO)	6.60 µM
CN(C)CCNC(=O)c1ccc(-c2cnc3ccc(NCc4ccc(Cl)c(Cl)c4)nn23)cc1 [TCMDC-136678]	330 nM	1 (1: YES)	16.66 µM
CCNCc1cccc(-c2ccc3ccnc(N)c3c2)c1 [TCMDC-136869]	1660 nM	0 (0: NO)	12.50 µM
FC(F)c1nc2ccccc2n1-c1nc(N2CCOCC2)nc(N2CCOCC2)n1 [TCMDC-137004]	5440 nM	0 (0: NO)	1.58 µM

SMILES	IC50 [1]	Is compound selective in assay? Pf GC-ATP active? [2]	Unified cytotox [3]
CS(=O)(=O)O.FC(F)(F)COc1c(CCNCCCCNCCc2ccc3ccccc3c2OCC(F)(F)F)ccc2ccccc12 [TCMDC-137169]	100 nM	1 (1: YES)	2.80 µM
CCN(CC)CCOc1ccc(C(O)(C#CC(O)(c2ccccc2)c2ccc(OCCN(CC)CC)cc2)c2ccccc2)cc1 (stereo not drawn) [TCMDC-137197]	690 nM	0 (0: NO)	3.67 µM
CCN(CC)CCOc1ccc(C(O)(C#CC(O)(c2ccc(C)cc2)c2ccc(OCCN(CC)CC)cc2)c2ccc(C)cc2)cc1 (stereo not drawn) [TCMDC-137198]	140 nM	1 (1: YES)	1.62 µM
CCN(CC)CCOc1ccc(C(O)(C#CC(O)(c2ccc(OCCN(CC)CC)cc2)c2ccc([N+](=O)[O-])cc2)c2ccc([N+](=O)[O-])cc2)cc1 (stereo not drawn) [TCMDC-137201]	220 nM	1 (1: YES)	6.20 µM
CCc1cc(COc2ccc(CNCCC(C)C)cc2I)c(OCc2ccccc2)c(COc2ccc(CNCCC(C)C)cc2I)c1.Cl [TCMDC-137255]	1020 nM	0 (0: NO)	5.80 µM
CC(C)CCNCc1ccc(OCc2cccc(COc3ccc(CNCCC(C)C)cc3I)c2)c(I)c1.Cl [TCMDC-137274]	370 nM	1 (1: YES)	5.30 µM
Cl.N=C(NCCCc1ccccc1)c1cccc(C(=N)NCCCc2ccccc2)n1 [TCMDC-137453]	310 nM	1 (1: YES)	12.80 µM
COc1cc(CCNC(=N)/C=C/c2ccc(Cl)cc2)ccc1Cl.Cl [TCMDC-137457]	280 nM	1 (1: YES)	14.00 µM
CCCCN(CCCC)CCCCNc1c2ccccc2nc2ccccc12.Cl [TCMDC-137461]	550 nM	1 (1: YES)	19.00 µM
COc1ccc2nc3cc(Cl)ccc3c(NCCN3CCN(C)CC3)c2c1 [TCMDC-137476]	1880 nM	1 (1: YES)	19.33 µM
CN1CCN(CCCCNc2c3ccccc3nc3ccccc23)CC1 [TCMDC-137479]	1320 nM	0 (0: NO)	3.39 µM
Br.C=CCNC(CCCCC)c1ccc(OCCOc2ccc(C(CCCCC)NCC=C)cc2)cc1 (stereo not drawn) [TCMDC-137483]	910 nM	0 (0: NO)	5.80 µM
CCCCN1CCN(CCCCNc2c3ccccc3nc3ccccc23)CC1.Cl [TCMDC-137569]	1190 nM	1 (1: YES)	12.68 µM
COc1ccc2nc3cc(Cl)ccc3c(NCCCCN3CCNCC3)c2c1.Cl [TCMDC-137578]	660 nM	0 (0: NO)	5.00 µM
Br.CCCCC(NCC)c1ccc(OCCOc2ccc(C(CCCC)NCC)cc2)cc1 (stereo not drawn) [TCMDC-137612]	420 nM	1 (1: YES)	6.10 µM
CCCCCCNC(=N)c1ccc(OCCCCCOc2ccc(C(=N)NCCCCCC)cc2)cc1.Cl [TCMDC-137619]	310 nM	1 (1: YES)	5.39 µM
